Laboratory results from PMC4902181 (Journal of medicinal chemistry, 2015).
Entries after “also recorded” stand apart in the source; their conditions may differ.

Experiments:
[1] = Human liver microsomal stability; format: in vitro ADME; conditions: compound 10 µM, 30 min incubation
[2] = Rat liver microsomal stability; format: in vitro ADME; conditions: compound 10 µM, 30 min incubation
[3] = 30 min incubation; cited from earlier work
lipofuscin bisretinoids = conditions: chronic oral administration, Abca4−/− mouse; cited from earlier work
serum RBP4 [4] = conditions: chronic oral administration, Abca4−/− mouse; cited from earlier work
RBP4 = RBP4 (Homo sapiens, UniProt P02753); assay: RBP4 scintillation proximity assay; format: binding
RBP4-TTR interaction = RBP4-TTR interaction (Homo sapiens, UniProt P02753); assay: HTRF retinol-dependent RBP4-TTR interaction assay; format: biochemical; conditions: read-out: RBP4 HTRF IC50; 1 µM retinol
CYP2C9 = CYP2C9 (Homo sapiens, UniProt P11712); conditions: read-out: CYP2C9 inhibitory activity IC50; cited from earlier work
Chain of CYP2C9 (P11712 whole entry): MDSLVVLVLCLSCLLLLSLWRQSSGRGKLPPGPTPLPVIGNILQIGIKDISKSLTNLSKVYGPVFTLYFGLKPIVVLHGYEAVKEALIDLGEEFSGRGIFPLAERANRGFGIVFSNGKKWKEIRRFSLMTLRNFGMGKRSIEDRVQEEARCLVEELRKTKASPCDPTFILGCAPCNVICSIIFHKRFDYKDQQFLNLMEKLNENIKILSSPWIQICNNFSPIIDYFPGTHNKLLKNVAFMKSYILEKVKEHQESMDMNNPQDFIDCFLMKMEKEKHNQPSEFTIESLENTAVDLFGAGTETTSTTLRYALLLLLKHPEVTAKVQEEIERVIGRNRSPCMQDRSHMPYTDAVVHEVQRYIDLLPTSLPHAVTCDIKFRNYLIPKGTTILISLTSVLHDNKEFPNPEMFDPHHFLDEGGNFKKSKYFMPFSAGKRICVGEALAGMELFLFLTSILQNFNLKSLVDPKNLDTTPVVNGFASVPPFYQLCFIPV

serum RBP4 [5] = conditions: acute and chronic rodent oral dosing; cited from earlier work
hERG channel = hERG channel (Homo sapiens, UniProt Q12809); assay: Patch-Xpress patch-clamp hERG assay; format: cell-based
Chain of hERG channel (Q12809 whole entry): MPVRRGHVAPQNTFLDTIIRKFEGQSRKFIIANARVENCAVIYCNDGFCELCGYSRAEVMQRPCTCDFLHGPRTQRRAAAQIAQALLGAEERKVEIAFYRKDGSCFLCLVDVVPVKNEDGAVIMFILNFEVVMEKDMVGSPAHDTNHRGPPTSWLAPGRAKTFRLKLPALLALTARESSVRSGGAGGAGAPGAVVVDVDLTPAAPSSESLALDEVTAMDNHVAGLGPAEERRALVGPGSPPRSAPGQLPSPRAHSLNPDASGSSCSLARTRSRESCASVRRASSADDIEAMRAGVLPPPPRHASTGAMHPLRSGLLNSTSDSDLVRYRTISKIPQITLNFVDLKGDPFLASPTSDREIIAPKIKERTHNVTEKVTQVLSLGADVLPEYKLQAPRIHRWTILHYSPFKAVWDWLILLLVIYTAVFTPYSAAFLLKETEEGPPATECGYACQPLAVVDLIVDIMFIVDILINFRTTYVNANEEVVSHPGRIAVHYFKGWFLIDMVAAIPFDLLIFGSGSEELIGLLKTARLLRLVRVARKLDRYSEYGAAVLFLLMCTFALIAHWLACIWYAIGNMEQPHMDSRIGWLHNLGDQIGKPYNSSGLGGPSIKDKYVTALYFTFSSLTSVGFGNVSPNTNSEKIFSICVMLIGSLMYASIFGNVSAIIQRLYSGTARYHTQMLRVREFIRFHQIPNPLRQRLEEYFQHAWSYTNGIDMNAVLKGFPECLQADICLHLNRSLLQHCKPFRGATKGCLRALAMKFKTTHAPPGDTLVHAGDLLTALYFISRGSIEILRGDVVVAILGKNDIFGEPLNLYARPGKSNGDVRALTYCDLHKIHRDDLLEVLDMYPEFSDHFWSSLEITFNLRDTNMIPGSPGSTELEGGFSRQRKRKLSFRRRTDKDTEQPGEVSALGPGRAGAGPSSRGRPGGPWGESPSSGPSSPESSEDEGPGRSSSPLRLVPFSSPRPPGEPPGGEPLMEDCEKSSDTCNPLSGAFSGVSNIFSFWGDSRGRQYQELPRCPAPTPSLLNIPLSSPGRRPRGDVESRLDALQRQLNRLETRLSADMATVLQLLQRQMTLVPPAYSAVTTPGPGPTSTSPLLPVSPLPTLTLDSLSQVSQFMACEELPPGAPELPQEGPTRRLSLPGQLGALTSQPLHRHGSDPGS

MDCK-MDR1 = assay: MDR1-MDCK permeability assay; format: in vitro ADME
[6] = system: panel of fifty-five GPCRs, enzymes, ion channels, and transporters; assay: Standard off-target screening panel; conditions: data not shown
human PXR = target: T1, human PXR (Homo sapiens, UniProt O75469); assay: Human PXR activation; conditions: data not shown
T1 sequence (O75469 1-434): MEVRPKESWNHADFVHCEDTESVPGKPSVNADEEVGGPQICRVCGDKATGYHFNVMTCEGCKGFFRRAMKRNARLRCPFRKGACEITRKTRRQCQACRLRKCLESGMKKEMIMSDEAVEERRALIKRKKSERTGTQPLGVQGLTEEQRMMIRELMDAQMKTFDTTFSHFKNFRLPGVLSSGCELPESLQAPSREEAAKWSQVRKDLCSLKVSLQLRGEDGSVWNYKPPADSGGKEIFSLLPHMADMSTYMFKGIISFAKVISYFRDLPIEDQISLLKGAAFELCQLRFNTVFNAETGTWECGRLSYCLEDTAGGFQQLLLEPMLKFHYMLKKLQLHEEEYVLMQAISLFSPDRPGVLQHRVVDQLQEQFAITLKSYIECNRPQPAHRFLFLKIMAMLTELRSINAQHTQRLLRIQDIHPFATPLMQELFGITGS

[7] = Single dose IV and PO PK in rats; format: in vivo; conditions: Sprague-Dawley, rat, plasma, 2 mg/kg

Structure (SMILES) | microsomal stability (% remaining) HLM [1] [% remaining] | microsomal stability (% remaining) RLM [2] [% remaining] | other results
O=C(O)c1ccccc1NC(=O)N1CCC(c2ccccc2C(F)(F)F)CC1 [Compound 3, A1120, reference compound] | 3 | 85 | HLM stability (% remaining) [3]: ~ 3 % remaining; reduction of accumulation of lipofuscin bisretinoids (lipofuscin bisretinoids): approximately 50%; reduction in serum RBP4 (serum RBP4 [4]): 75%
O=C(O)c1ccccc1NC(=O)N1C[C@H]2C[C@@H](c3ccccc3C(F)(F)F)C[C@H]2C1 [Compound 4, 2-((3aR,5r,6aS)-5-(2-(trifluoromethyl)phenyl)octahydrocyclopenta[c]pyrrole-2-carboxamido)benzoic acid] | 100 | 75 | IC50 (RBP4; read-out: RBP4 SPA IC50, fixed 10 nM 3H-retinol): 72.7 nM; IC50 (RBP4-TTR interaction): 294 nM; HLM stability (% remaining) [3]: 100 % remaining; IC50 (CYP2C9): 340 nM; lowering of serum RBP4 levels (serum RBP4 [5]): > 85%
Cc1cc(C(=O)O)nc(N2CCC(c3ccccc3C(F)(F)F)CC2)n1 [Compound 10, 6-Methyl-2-(4-(2-(trifluoromethyl)phenyl)piperidin-1-yl)-pyrimidine-4-carboxylic Acid] | 68 | 96 | –
COC(=O)c1cc(C)nc(N2CCN(c3ccccc3C(F)(F)F)CC2)n1 [Compound 13, methyl 6-methyl-2-(4-(2-(trifluoromethyl)phenyl)piperazin-1-yl)-pyrimidine-4-carboxylate] | 0.0 | 0.0 | –
Cc1cc(C(=O)O)nc(N2CCN(c3ccccc3C(F)(F)F)CC2)n1 [Compound 14, 6-Methyl-2-(4-(2-(trifluoromethyl)phenyl)piperazin-1-yl)-pyrimidine-4-carboxylic Acid] | 18 | 63 | –
Cc1cc(C(=O)O)nc(N2C[C@@H]3CN(c4ccccc4C(F)(F)F)C[C@@H]3C2)n1 [Compound 18, 6-Methyl-2-((3aR,6aS)-5-(2-(trifluoromethyl)phenyl)hexahydropyrrolo[3,4-c]pyrrol-2(1H)-yl)pyrimidine-4-carboxylic Acid] | 80 | 76 | –
COC(=O)c1cc(C)nc(N2C[C@H]3C[C@@H](c4ccccc4C(F)(F)F)C[C@H]3C2)n1 [Compound 28, Methyl 6-Methyl-2-((3aR,5r,6aS)-5-(2-(trifluoromethyl)phenyl)-hexahydrocyclopenta[c]pyrrol-2(1H)-yl)pyrimidine-4-carboxylate] | 0.2 | 9.8 | –
Cc1cc(C(=O)O)nc(N2C[C@H]3C[C@@H](c4ccccc4C(F)(F)F)C[C@H]3C2)n1 [Compound 33, 6-Methyl-2-((3aR,5r,6aS)-5-(2-(trifluoromethyl)phenyl)-hexahydrocyclopenta[c]pyrrol-2(1H)-yl)pyrimidine-4-carboxylic Acid] | 94 | 93 | off-target activity at the hERG channel (hERG channel): no significant off-target activity; MDCK-MDR1 permeability class (MDCK-MDR1): highly permeable; also recorded: high permeability; off-target activity in screening panel [6]: no significant off-target activity; human PXR activation (human PXR): did not induce human PXR activation; clearance [7]: 5.06 mL/h/kg
Cc1cc(C(=O)O)nc(N2C[C@H]3C[C@H](c4ccccc4C(F)(F)F)C[C@H]3C2)n1 [Compound 40, 6-Methyl-2-((3aR,5s,6aS)-5-(2-(trifluoromethyl)phenyl)-hexahydrocyclopenta[c]pyrrol-2(1H)-yl)pyrimidine-4-carboxylic Acid] | – | – | RBP4 activity (RBP4): devoid of RBP4 activity
O=C(O)c1cncc(N2C[C@H]3C[C@@H](c4ccccc4C(F)(F)F)C[C@H]3C2)c1 [Compound 51, 5-((3aR,5r,6aS)-5-(2-(Trifluoromethyl)phenyl)hexahydrocyclopenta[c]pyrrol-2(1H)-yl)nicotinic Acid] | – | – | RBP4 activity (RBP4): devoid of RBP4 activity
